Assay results taken from US8759372B2, “N-(5S,6S,9R)-amino-6-(2,3-difluorophenyl)-6,7,8,9-tetrahydro-5H-ctclohepta[b]Pyridin-9-yl-4-(2-oxo-2,3-dihydro-1H-imidazo[4,5-b]pyridin-1-carboxylate salt” (Bristol-Myers Squibb Company, priority 2012, dated 2014).
Where a name gives a salt, the structure may show the parent alone. Read-outs that look alike come from different tables or passages of the source.

Legend:
[1] = Dissolution rate in aqueous medium; assay type: physicochemical; settings: pH 1 and 5 versus pH 7
Excerpt: The dissolution rate of Compound (I) is dependent on the pH of the aqueous medium. […] The normal pH of the stomach is 1.2 to 1.8 according to […], Clinical Analysis, Chapter 32, in Remington: The Science and Practice of Pharmacy 20th Edition, A. R. Gennaro, editor; 2000, Lippinocott Williams & Wilkins, Baltimore, Md. However, patients often take other medications that can raise the pH of the stomach, including antacids, proton pump inhibitors, and H2-receptor antagonists such as famotidine, which can lower the dissolution rate of Compound (I).

[2] = In vivo pharmacokinetic study in humans with and without famotidine pretreatment; settings: for AUC(0-inf) / Cmax / half-life / Tmax: human, plasma; for AUC(0-inf) / Cmax / half-life / Cl/F: (%); for Tmax: read-out: Tmax Median
Procedure: An in vivo study was conducted comparing the pharmacokinetics of the free base Compound (I) in humans pretreated with 40 mg of famotidine with non-pretreated humans.
Compound (I) in human EDTA plasma was analyzed using liquid-liquid extraction with uHPLC-MS/MS detection on a Triple Quad 5500 mass spectrometer. The method utilized stable isotope labeled [^13C2, D4]-Compound (I) as the internal standard. After the addition of 50 μL of 100 ng/mL [^13C2, D4]-Compound (I) in MeOH:water (20/80) and of 50 μL 1M NH4OAc containing 4% acetic acid buffer solution to 0.100 mL of each study sample, quality control (QC) sample, and calibration standard, the samples were extracted with 600 μL methyl tert-butyl ether (MTBE) by shaking for 15 min. A 450 μL portion of the organic layer was removed and evaporated to dryness. The residue was reconstituted in 200 μL of the reconstitution solution (30% acetonitrile in 10 mM NH4OAc with 0.01% acetic acid). All liquid transfer steps were performed using a Perkin Elmer JANUS Mini® liquid handler except for the addition of the internal standard solution. A 10 μL aliquot of the extracted sample was injected to uHPLC-MS/MS system. The uHPLC was performed on a LEAP 4X Ultra uHPLC system with LEAP HTC PAL autosampler. Mobile phase A contained 10 mM NH4OAc and 0.01% acetic acid in ACN/water (10:90), and mobile phase B contained 10 mM NH4OAc and 0.01% acetic acid in ACN/water (90:10). Chromatographic separation was achieved on an Acquity® uHPLC BEH C18 column (1.7 μm, 2.1×50 mm) with an isocratic elution from 0-1.5 min consisted of 28% Mobile Phase B for analysis of Compound (I), then with a gradient elution consisted of a linear increase from 28% B to 100% B in 0.1 min, then maintaining it at 100% B for 1.1 min for washing out the column. The gradient was then returned to 28% B within 0.1 min, and maintained at 28% for 0.9 min with a total run time of 3.7 min. The flow rate was 0.6 mL/min and column temperature was maintained at 60° C. condition. Detection was accomplished using an AB Sciex Triple Quad 5500 mass spectrometer in positive ESI with turbo ion spray ionization and using multiple reaction monitoring (MRM) mode. The MRM transitions were m/z 535→256 for Compound (I) and m/z 541→256 for [^13C2, D4]-Compound (I). Data acquisition and quantiation were performed using AB Sciex Analyst® 1.5.1 software. The standard curve, which ranged from 0.500-500 ng/ml for Compound (I), was fitted to a 1/x2 weighted linear regression model. During sample analysis, four levels of analytical quality control (QC) samples representing low, geometric-mean, medium, and high concentrations of Compound (I) prepared in human EDTA plasma were analyzed in 4 replicates at each concentration level for each analytical run. The results from these QC samples were used to accept or reject the analytical runs containing study samples based on the acceptance criteria established a priori for the analysis of Compound (I) in human EDTA plasma.

[3] = Solid state stability study; assay type: physicochemical
Procedure: The solid state stability of Example 1 was tested by exposing samples to various temperature and relative humidity conditions for periods of 1, 2, and 4 weeks.

[4] = Moisture sorption isotherm; assay type: physicochemical; settings: for moisture sorption weight gain: 25° C.
Procedure: Example 1 has moisture sorption weight gains of 0.8 weight % and 2.8 weight % between 25% and 75% relative humidity and 5% and 95% relative humidity, respectively.
Moisture sorption isotherms were collected in a VTI SGA-100 Symmetric Vapor Analyzer using approximately 10 mg of sample. The sample was dried at 60° C. until the loss rate of 0.0005 wt %/min was obtained for 10 minutes. The sample was tested at 25° C. and 3 or 4, 5, 15, 25, 35, 45, 50, 65, 75, 85, and 95% RH. Equilibration at each RH was reached when the rate of 0.0003 wt %/min for 35 minutes was achieved or a maximum of 600 minutes.

[5] = Salt screen and crystalline salt characterization; assay type: physicochemical; settings: for hygroscopicity: ambient temperature and relative humidity conditions, Hemisulfate Salt
Procedure: High throughput crystallization was employed to screen for the formation of crystalline salts of Compound (I). The screening examined acid type, acid level (equivalents), and/or type of crystallization solvent. Each plate contained 96 well plates (8 rows of 12 columns per plate).
A solution was prepared by dissolving 400 mg of Compound (I) in a mixture of 36 ml THF and 4 mL H2O. The solution ([…]) was transferred to 24 vials. To each vial was added 0.25 M EtOH stock solutions of the following acids:
The content of each vial was transferred to 12 crystallization wells and evaporated to dryness. Upon evaporation, each well was charged with 100 μl of solvent using a robotic liquid handler. The following crystallization solvents were tested: methyl isobutyl ketone (MIBK), ethyl acetate, toluene, THF, acetonitrile, acetone, isopropanol, ethanol, methanol, 1,2-dichloroethylene, isopropanol/water (50:50), and water. Next, the plates were sealed with Teflon septa and subjected to temperature cycling. The plates were maintained at 50° C. for 10 hours and then allowed to cool to room temperature over a period of 14 hours. After the heating/cooling cycle, the contents of the wells were characterized by birefringent imaging. Perceived crystalline hits were further characterized by PXRD analysis.

[6] = Water activity studies between crystalline forms; assay type: physicochemical
Procedure: Form P22C: prepared by heating Form H1.5-1 at 60° C. for 2 hours or at 75° C. for 5 minutes.
Form P33: Form H1.5-1 converted to Form P33 between 50° C. and 75° C. in variable temperature PXRD experiment. Also observed after Form H1.5-1 was heated to 105° C. for 5 minutes, or prepared by slurring dry powder Form H1.5-1 in dry EtOH or IPAc. […] Form P35: Prepared from slurry of Form H1.5-1 in dry MeOH under molecular sieves (7% RH). Converted to Form P33 when dried at 60° C. Stability in Water Slurry

[7] = Stability in water slurry; assay type: physicochemical; settings: room temperature, two days
Procedure: An aqueous slurry of Example 1 was prepared and stored at room temperature.

[8] = humans, 150 mg Compound (I) oral with 40 mg Famotidine pretreatment
[9] = humans, 150 mg Compound (I) oral, no pretreatment
[10] = humans, 150 mg with 40 mg Famotidine relative to no pretreatment
[11] = 25 RH/60° C. (first line, r9), 2 weeks
[12] = 25 RH/60° C. (first line, r9), 4 weeks
[13] = 25 RH/60° C. (first of three lines printed alike, r9), 1 week
[14] = 25 RH/60° C. (second line, r11), 1 week
[15] = 25 RH/60° C. (second line, r11), 2 weeks
[16] = 25 RH/60° C. (second line, r11), 4 weeks
[17] = 25 RH/60° C. (third line, r13), 1 week
[18] = 25 RH/60° C. (third line, r13), 2 weeks
[19] = 25 RH/60° C. (third line, r13), 4 weeks
[20] = HIL/UV (high-intensity light/ultraviolet), 1 week
[21] = HIL/UV (high-intensity light/ultraviolet), 2 weeks

## N[C@@H]1c2cccnc2[C@H](OC(=O)N2CCC(n3c(=O)[nH]c4ncccc43)CC2)CC[C@H]1c1cccc(F)c1F [Compound (I), (5S,6S,9R)-5-amino-6-(2,3-difluorophenyl)-6,7,8,9-tetrahydro-5H-cyclohepta[b]pyridin-9-yl-4-(2-oxo-2,3-dihydro-1H-imidazo[4,5-b]pyridin-1-yl)piperidine-1-carboxylate]
[1]
  dissolution rate: higher dissolution rate at pH values of 1 and 5 than at a pH value of 7
[2]; [8]
  AUC(0-inf): 3060 ng·h/mL
  Cmax: 259 ng/mL
  half-life: 12.6 h
  Tmax: 3 h
  Cl/F: 49 (28%) L/hr
[2]; [9]
  AUC(0-inf): 7200 ng·h/mL
  Cmax: 991 ng/mL
  half-life: 12 h
  Tmax: 2.5 h
  Cl/F: 20.84 (75%) L/hr
[2]; humans pretreated with 40 mg of famotidine compared to non-pretreated humans
  change in AUC and Cmax: significant reduction
[2]; [10]
  F (AUCinf): 42.5% (96%)
  F (Cmax): 26.2% (130%)

## N[C@@H]1c2cccnc2[C@H](OC(=O)N2CCC(n3c(=O)[nH]c4ncccc43)CC2)CC[C@H]1c1cccc(F)c1F [Example 1, (5S,6S,9R)-5-Amino-6-(2,3-difluorophenyl)-6,7,8,9-tetrahydro-5H-cyclohepta[b]pyridin-9-yl-4-(2-oxo-2,3-dihydro-1H-imidazo[4,5-b]pyridin-1-yl) piperidine-1-carboxylate, Hemisulfate Salt]
[3]; [11]
  % potency: 96.8%
  % total impurities: 0.27%
[3]; [12]
  % potency: 96.9%
  % total impurities: 0.27%
[3]; [13]
  % potency: 94.4%
  % total impurities: 0.27%
[3]; [14]
  % potency: 95.1%
  % total impurities: 0.27%
[3]; [15]
  % potency: 98.5%
  % total impurities: 0.27%
[3]; [16]
  % potency: 97.0%
  % total impurities: 0.27%
[3]; [17]
  % potency: 101.6%
  % total impurities: 0.28%
[3]; [18]
  % potency: 102.6%
  % total impurities: 0.27%
[3]; [19]
  % potency: 110.0%
  % total impurities: 0.27%
[3]; [20]
  % potency: 100.7%
  % total impurities: 0.27%
[3]; [21]
  % potency: 96.9%
  % total impurities: 0.27%
[3]; Initial
  % potency: 98.5%
  % total impurities: 0.27%
[3]; Refrigerated, 1 week
  % potency: 98.0%
  % total impurities: 0.29%
[3]; Refrigerated, 2 weeks
  % potency: 96.5%
  % total impurities: 0.27%
[3]; Refrigerated, 4 weeks
  % potency: 105.7%
  % total impurities: 0.27%
[3]; tested temperature and relative humidity conditions, four weeks of storage
  solid state stability: stable under the tested storage conditions
[4]; between 5% and 95% relative humidity
  moisture sorption weight gain: 2.8 weight %
[4]; between 25% and 75% relative humidity
  moisture sorption weight gain: 0.8 weight %
[4]; moisture sorption isotherm at 25° C.
  hygroscopicity: low or non-hygroscopic
[5]; listed as Sulfuric acid
  hygroscopicity: low/non-
[5]; listed as hemisulfate salt of Compound (I)
  hygroscopicity: low hygroscopicity
[5]; crystalline salt
  chemical stability: chemically stable
  physical stability: physically stable
[6]; Form H1.5-1 versus Form P22C
  relative stability of crystalline forms: more stable at >23% relative humidity
[6]; Form H1.5-1 versus Form P33
  relative stability of crystalline forms: more stable at >23% relative humidity
[7]
  chemical degradation in aqueous slurry: no significant chemical degradation
  stability of crystalline form in aqueous slurry (PXRD): stable in the aqueous slurry
